From patent publication US20260174786A1, “A NITROGEN-CONTAINING SPIROCYCLIC COMPOUND, PHARMACEUTICAL COMPOSITION AND USE THEREOF” (Prime Gene Therapeutics Co., Ltd., priority 2022, published 2026)

The molecules below were run against T1, hTRPV3 (Homo sapiens, UniProt Q8NET8) (assay: Whole cell patch clamp inhibition rate test on HEK-293 cells instantaneously expressing TRPV3). Settings: HEK293; hTRPV3, single concentration 0.3 μM.
T1 construct: expressed in transfected cells; host or cells: HEK-293
T1 sequence (Q8NET8 1-790): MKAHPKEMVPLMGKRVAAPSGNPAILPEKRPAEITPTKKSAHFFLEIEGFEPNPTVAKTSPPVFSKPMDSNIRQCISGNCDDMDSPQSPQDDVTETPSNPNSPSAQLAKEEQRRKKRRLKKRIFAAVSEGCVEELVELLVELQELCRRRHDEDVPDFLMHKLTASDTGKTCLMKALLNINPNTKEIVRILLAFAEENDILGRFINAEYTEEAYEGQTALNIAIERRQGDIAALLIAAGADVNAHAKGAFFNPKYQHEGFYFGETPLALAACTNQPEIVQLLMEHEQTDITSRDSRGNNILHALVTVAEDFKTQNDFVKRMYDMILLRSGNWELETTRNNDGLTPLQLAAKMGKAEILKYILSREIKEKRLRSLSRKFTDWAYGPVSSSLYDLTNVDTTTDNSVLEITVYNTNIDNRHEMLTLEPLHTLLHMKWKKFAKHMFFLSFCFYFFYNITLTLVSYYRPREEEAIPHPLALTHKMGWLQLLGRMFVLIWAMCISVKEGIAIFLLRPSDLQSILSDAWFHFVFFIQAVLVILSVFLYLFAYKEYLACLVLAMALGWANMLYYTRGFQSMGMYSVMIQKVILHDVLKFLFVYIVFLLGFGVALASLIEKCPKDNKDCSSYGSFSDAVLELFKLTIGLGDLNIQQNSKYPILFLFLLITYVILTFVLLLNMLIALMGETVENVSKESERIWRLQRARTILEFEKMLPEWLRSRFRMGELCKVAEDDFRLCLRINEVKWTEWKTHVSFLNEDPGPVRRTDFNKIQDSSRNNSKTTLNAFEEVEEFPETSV
Assay type: cell-based
How it was run: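 HEK-293 cells transiently transfected with TRPV3, recorded next-but-one day by whole-cell patch clamp at room temperature: holding −80 mV, ramp −100 to 100 mV over 100 ms every 5 s, peak current monitored. Ascending concentrations perfused, 5 min each; each cell its own control, at least two cells per concentration.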
O=C(c1ccc(F)cn1)N1CCC2(CC(O)c3cc(-c4ccccc4OC(F)(F)F)ccc32)C1 (stereo not shown) [Example 82, (5-fluoropyridin-2-yl)(3-hydroxy-5-(2-(trifluoromethoxy)phenyl)-2,3-dihydrospiro[indene-1,3′-pyrrolidine]-1′-yl) ketone] gave an inhibition at 0.3 µM of 50 to 70%.
For O=C(c1ccc(F)cn1)N1CCC2(CC(O)c3cc(-c4cc(F)ccc4C4CC4)ccc32)C1 (stereo not shown) [Example 83, (5-(2-cyclopropyl-5-fluorophenyl)-3-hydroxy-2,3-dihydrospiro[indene-1,3′-pyrrolidine]-1′-yl)(5-fluoropyridin-2-yl) ketone], the inhibition at 0.3 µM was 70 to 100%.
For O=C(c1ccc(F)cn1)N1CCC2(CC(O)c3cc(-c4ccccc4)ccc32)C1 (stereo not shown) [Example 84, (5-fluoropyridin-2-yl)(3-hydroxy-5-phenyl-2,3-dihydrospiro[indene-1,3′-pyrrolidine]-1′-yl) ketone], the inhibition at 0.3 µM was 25 to 50%.
Molecule Cc1cccc(-c2ccc3c(c2)C(O)CC32CCN(C(=O)c3ccc(F)cn3)C2)c1C1CC1 (stereo not shown) [Example 85, (5-(2-cyclopropyl-3-methylphenyl)-3-hydroxy-2,3-dihydrospiro[indene-1,3′-pyrrolidine]-1′-yl)(5-fluoropyridin-2-yl) ketone] has an inhibition at 0.3 µM of 70 to 100%.
Molecule CCOc1ccccc1-c1ccc2c(c1)C(O)CC21CCN(C(=O)c2ccc(F)cn2)C1 (stereo not shown) [Example 86, (5-(2-ethoxyphenyl)-3-hydroxy-2,3-dihydrospiro[indene-1,3′-pyrrolidine]-1′-yl)(5-fluoropyridin-2-yl) ketone] has an inhibition at 0.3 µM of 50 to 70%.
Work on O=C(c1ccc(F)cn1)N1CCC2(CC(O)c3cc(-c4cccc5c4CCC5)ccc32)C1 (stereo not shown) [Example 87, (5-(2,3-dihydro-1H-indene-4-yl)-3-hydroxy-2,3-dihydrospiro[indene-1,3′-pyrrolidine]-1′-yl)(5-fluoropyridin-2-yl) ketone] yielded an inhibition at 0.3 µM of 50 to 70%.
CC(C)(C)c1ccccc1-c1ccc2c(c1)C(O)CC21CCN(C(=O)c2ccc(F)cn2)C1 (stereo not shown) [Example 88, (5-(2-(tert-butyl)phenyl)-3-hydroxy-2,3-dihydrospiro[indene-1,3′-pyrrolidine]-1′-yl)(5-fluoropyridin-2-yl) ketone] was tested, and the inhibition at 0.3 µM was 70 to 100%.
Work on CC(C)(O)c1ccccc1-c1ccc2c(c1)C(O)CC21CCN(C(=O)c2ccc(F)cn2)C1 (stereo not shown) [Example 89, (5-fluoropyridin-2-yl)(3-hydroxy-5-(2-(2-hydroxypropyl-2-)phenyl)-2,3-dihydrospiro[indene-1,3′-pyrrolidine]-1′-yl) ketone] yielded an inhibition at 0.3 µM of 25 to 50%.
In the case of Cc1ncccc1-c1ccc2c(c1)C(O)CC21CCN(C(=O)c2ccc(F)cn2)C1 (stereo not shown) [Example 91, (5-fluoropyridin-2-yl)(3-hydroxy-5-(2-methylpyridin-3-yl)-2,3-dihydrospiro[indene-1,3′-pyrrolidine]-1′-yl) ketone], the inhibition at 0.3 µM is reported as less than 25%.
O=C(c1ccc(F)cn1)N1CCC2(CC(O)c3cc(-c4cccc5ccccc45)ccc32)C1 (stereo not shown) [Example 92, (5-fluoropyridin-2-yl)(3-hydroxy-5-(naphthalen-1-yl)-2,3-dihydrospiro[indene-1,3′-pyrrolidine]-1′-yl) ketone] gave an inhibition at 0.3 µM of 70 to 100%.
Work on CC(=O)c1cc(F)ccc1-c1ccc2c(c1)C(O)CC21CCN(C(=O)c2ccc(F)cn2)C1 (stereo not shown) [Example 95, 1-(5-fluoro-2-(1′-(5-fluoropyridoyl)-3-hydroxy-2,3-dihydrospiro[indene-1,3′-pyrrolidine]-5-yl)phenyl)ethan-1-one] yielded an inhibition at 0.3 µM of 70 to 100%.
CC(C)c1ccccc1-c1ccc2c(c1)C1(CCN(C(=O)c3ccc(F)cn3)C1)CC2O (stereo not shown) [Example 103, (5-fluoropyridin-2-yl)(3-hydroxy-6-(2-isopropylphenyl)-2,3-dihydrospiro[indene-1,3′-pyrrolidine]-1′-yl) ketone] showed an inhibition at 0.3 µM of less than 25%.
In the case of CC(C)c1ccccc1Oc1ccc2c(c1)C(O)CC21CCN(C(=O)c2ccc(F)cn2)C1 (stereo not shown) [Example 104, (5-fluoropyridin-2-yl)(3-hydroxy-5-(2-isopropylphenyloxy)-2,3-dihydrospiro[indene-1,3′-pyrrolidine]-1′-yl) ketone], the inhibition at 0.3 µM is reported as 70 to 100%.
CCc1nccnc1Oc1ccc2c(c1)C(O)CC21CCN(C(=O)c2ccc(F)cn2)C1 (stereo not shown) [Example 105, (5-((3-ethylpyrazin-2-yl)oxy)-3-hydroxy-2,3-dihydrospiro[indene-1,3′-pyrrolidine]-1′-yl)(5-fluoropyridin-2-yl] ketone] gave an inhibition at 0.3 µM of less than 25%.
CC(C)c1ccccc1Sc1ccc2c(c1)C(O)CC21CCN(C(=O)c2ccc(F)cn2)C1 (stereo not shown) [Example 106, (5-fluoropyridin-2-yl)(3-hydroxy-5-((2-isopropylphenyl)thio)-2,3-dihydrospiro[indene-1,3′-pyrrolidine]-1′-yl) ketone] was tested, and the inhibition at 0.3 µM was 70 to 100%.
With CC(C)c1ccccc1[S+]([O-])c1ccc2c(c1)C(O)CC21CCN(C(=O)c2ccc(F)cn2)C1 (stereo not shown) [Example 107, (5-fluoropyridin-2-yl)(3-hydroxy-5-((2-isopropylphenyl)sulfoxide)-2,3-dihydrospiro[indene-1,3′-pyrrolidine]-1′-yl) ketone] the inhibition at 0.3 µM was less than 25%.
CC(C)c1ccccc1S(=O)(=O)c1ccc2c(c1)C(O)CC21CCN(C(=O)c2ccc(F)cn2)C1 (stereo not shown) [Example 108, (5-fluoropyridin-2-yl)(3-hydroxy-5-((2-isopropylphenyl)sulfonyl)-2,3-dihydrospiro[indene-1,3′-pyrrolidine]-1′-yl) ketone] was tested, and the inhibition at 0.3 µM was less than 25%.
In the case of CC(C)c1ccccc1-c1ccc2c(c1)CCC21CCN(C(=O)c2ccc(F)cn2)C1 (stereo not shown) [Example 120, (5-fluoropyridin-2-yl)(5-(2-isopropylphenyl)-2,3-dihydrospiro[indene-1,3′-pyrrolidine]-1′-yl) ketone], the inhibition at 0.3 µM is reported as less than 25%.
Molecule CC(C)c1ccccc1-c1ccc2c(c1)C(CO)CC21CCN(C(=O)c2ccc(F)cn2)C1 (stereo not shown) [Example 126, (5-fluoropyridin-2-yl)(3-(methylol)-5-(2-isopropylphenyl)-2,3-dihydrospiro[indene-1,3′-pyrrolidine]-1′-yl) ketone] has an inhibition at 0.3 µM of 70 to 100%.
CC(C)c1ccccc1-c1ccc2c(c1)C(C(=O)O)CC21CCN(C(=O)c2ccc(F)cn2)C1 (stereo not shown) [Example 129, 1′-(5-fluoropyridoyl)-5-(2-isopropylphenyl)-2,3-dihydrospiro[indene-1,3′-pyrrolidine]-3-carboxylic acid] was tested, and the inhibition at 0.3 µM was less than 25%.
COC(=O)C1CC2(CCN(C(=O)c3ccc(F)cn3)C2)c2ccc(-c3ccccc3C(C)C)cc21 (stereo not shown) [Example 130, methyl 1′-(5-fluoropyridoyl)-5-(2-isopropylphenyl)-2,3-dihydrospiro[indene-1,3′-pyrrolidine]-3-carboxylate] gave an inhibition at 0.3 µM of less than 25%.
With CC(C)c1ccccc1-c1ccc2c(c1)C(O)CC21CCN(Cc2ccc(F)cn2)C1 (stereo not shown) [Example 134, 1′-((5-fluoropyridin-2-yl)methyl)-5-(2-isopropylphenyl)-2,3-dihydrospiro[indene-1,3′-pyrrolidine]-3-ol] the inhibition at 0.3 µM was less than 25%.
With CC(C)c1ccccc1-c1ccc2c(c1)C(O)CC21CCN(S(=O)(=O)c2ccc(Cl)cn2)C1 (stereo not shown) [Example 135, 1′-((5-chloropyridin-2-yl)sulfonyl)-5-(2-isopropylphenyl)-2,3-dihydrospiro[indene-1,3′-pyrrolidine]-3-ol] the inhibition at 0.3 µM was less than 25%.
For CC(C)c1ccccc1-c1ccc2c(c1)C(O)CC21CC(=O)N(Cc2ccc(F)cn2)C1 (stereo not shown) [Example 137, 1′-((5-fluoropyridin-2-yl)methyl)-3-hydroxy-5-(2-isopropylphenyl)-2,3-dihydrospiro[indene-1,3′-pyrrolidine]-5′-one], the inhibition at 0.3 µM was less than 25%.
CC(C)c1ccccc1-c1ccc2c(c1)C(O)CC21CCN(C(F)(F)c2ccc(F)cn2)C1 (stereo not shown) [Example 146, 1′-(difluoro(5-fluoropyridin-2-yl)methyl)-5-(2-isopropylphenyl)-2,3-dihydrospiro[indene-1,3′-pyrrolidine]-3-ol] was tested, and the inhibition at 0.3 µM was less than 25%.
Work on OC1CC2(CCN(c3cnc4cc(Cl)ccn34)C2)c2ccc(-c3ccccc3C3CC3)cc21 (stereo not shown) [Example 152, 5-(2-cyclopropylphenyl)-1′-(7-chloroimidazo[1,2-a]pyridin-3-yl)-2,3-dihydrospiro[indene-1,3′-pyrrolidine]-3-ol] yielded an inhibition at 0.3 µM of 70 to 100%.
Work on OC1CC2(CCN(c3cnc4cc(F)ccn34)C2)c2ccc(-c3ccccc3C3CC3)cc21 (stereo not shown) [Example 153, 5-(2-cyclopropylphenyl)-1′-(7-fluoroimidazo[1,2-a]pyridin-3-yl)-2,3-dihydrospiro[indene-1,3′-pyrrolidine]-3-ol] yielded an inhibition at 0.3 µM of 70 to 100%.
Work on O=C1C[C@@]2(CCN(C(=O)c3ccc(F)cn3)C2)c2ccc(-c3ccccc3C3CC3)cc21 [Example 162, (S)-5-(2-cyclopropylphenyl)-1′-(5-fluoropyridoyl)spiro[indene-1,3′-pyrrolidine]-3(2H)-one] yielded an inhibition at 0.3 µM of less than 25%.
